US9637483B2, “Heterocyclic compound” (TAKEDA PHARMACEUTICAL COMPANY LIMITED, priority 2013, dated 2017)

Legend:
Type in all cases: biochemical
[1] = target: T1, JAK1 (Homo sapiens, UniProt P23458); assay: JAK1 enzyme inhibition test (LANCE method); conditions: 1 μM test compound; read-out: JAK1 enzyme inhibitory activity (%, 1 μM)
T1 construct: purchased Invitrogen
Description: (§1) JAK1 enzyme inhibitory activity of test compounds was measured by the LANCE method (PerkinElmer). First, a test compound diluted with assay buffer (50 mM HEPES (pH 7.5), 10 mM MgCl2, 1 mM EGTA, 2 mM DTT, 0.01% Tween20, 0.01% BSA) was added to a 384-well plate by 2 μL each. Then, a JAK1 (Invitrogen) solution and a fluorescence-labeled peptide substrate (ULight-JAK1, PerkinElmer) solution diluted with assay buffer to 187.5 ng/mL and 300 nM, respectively, were added by 2 μL each. Then, an enzyme reaction was started by adding 2 μL each of ATP solution prepared with assay buffer to 150 μM. After the reaction at room temperature for 1 hr, Detection Buffer (PerkinElmer) prepared to contain 20 mM EDTA, 4 nM europium-labeled anti-phosphotyrosine antibody (PerkinElmer) was added by 6 μL each. After standing at room temperature for 1 hr, fluorescence intensity (excitation wavelength 340 nm, fluorescence wavelength 665 nm, delay time 100 microseconds) was measured by a plate reader, Envision (PerkinElmer). The inhibitory activity of each compound was calculated as a relative activity value to the fluorescence intensity of a well free of enzyme as 100% inhibition.

[2] = target: T2, JAK2 (Homo sapiens, UniProt O60674); assay: JAK2 enzyme inhibition test (LANCE method); conditions: 1 μM test compound; read-out: JAK2 enzyme inhibitory activity (%, 1 μM)
T2 construct: purchased Invitrogen
T2 sequence (O60674 whole entry): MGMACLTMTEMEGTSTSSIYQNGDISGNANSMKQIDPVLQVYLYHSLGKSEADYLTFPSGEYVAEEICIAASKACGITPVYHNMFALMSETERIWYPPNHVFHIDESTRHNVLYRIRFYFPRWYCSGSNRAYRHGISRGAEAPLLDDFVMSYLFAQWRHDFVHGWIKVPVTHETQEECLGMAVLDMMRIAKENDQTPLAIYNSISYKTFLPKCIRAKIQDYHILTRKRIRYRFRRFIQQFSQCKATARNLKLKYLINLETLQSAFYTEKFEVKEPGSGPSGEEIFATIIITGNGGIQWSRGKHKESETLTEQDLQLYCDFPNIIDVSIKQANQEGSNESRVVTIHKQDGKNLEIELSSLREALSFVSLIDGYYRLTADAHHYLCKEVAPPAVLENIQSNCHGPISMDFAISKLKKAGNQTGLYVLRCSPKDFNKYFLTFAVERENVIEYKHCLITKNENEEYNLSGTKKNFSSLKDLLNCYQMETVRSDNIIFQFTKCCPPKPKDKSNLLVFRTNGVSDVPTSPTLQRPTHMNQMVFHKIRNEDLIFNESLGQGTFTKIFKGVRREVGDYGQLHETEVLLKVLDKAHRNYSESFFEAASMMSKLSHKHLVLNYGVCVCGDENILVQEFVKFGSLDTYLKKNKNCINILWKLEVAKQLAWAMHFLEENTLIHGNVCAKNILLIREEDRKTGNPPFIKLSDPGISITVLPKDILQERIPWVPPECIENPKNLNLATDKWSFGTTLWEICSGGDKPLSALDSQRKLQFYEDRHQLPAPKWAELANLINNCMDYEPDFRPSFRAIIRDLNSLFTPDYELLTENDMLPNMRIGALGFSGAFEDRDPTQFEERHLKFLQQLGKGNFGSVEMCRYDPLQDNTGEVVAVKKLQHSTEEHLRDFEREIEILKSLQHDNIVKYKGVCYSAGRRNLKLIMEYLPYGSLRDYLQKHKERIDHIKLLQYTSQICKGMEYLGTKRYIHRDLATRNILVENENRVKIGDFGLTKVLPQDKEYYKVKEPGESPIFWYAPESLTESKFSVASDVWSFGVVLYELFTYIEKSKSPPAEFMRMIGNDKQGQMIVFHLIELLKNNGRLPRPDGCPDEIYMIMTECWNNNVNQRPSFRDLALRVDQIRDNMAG
Description: as §1, with “JAK2 enzyme” for “JAK1 enzyme”, “a JAK2” for “a JAK1”, “to 6” for “to 187.5”, “to 45” for “to 150”

[3] = target: T3, JAK3 (Homo sapiens, UniProt P52333); assay: JAK3 enzyme inhibition test (LANCE method); conditions: 1 μM test compound; read-out: JAK3 enzyme inhibitory activity (%, 1 μM)
T3 construct: purchased Invitrogen
T3 sequence (P52333 1-1124): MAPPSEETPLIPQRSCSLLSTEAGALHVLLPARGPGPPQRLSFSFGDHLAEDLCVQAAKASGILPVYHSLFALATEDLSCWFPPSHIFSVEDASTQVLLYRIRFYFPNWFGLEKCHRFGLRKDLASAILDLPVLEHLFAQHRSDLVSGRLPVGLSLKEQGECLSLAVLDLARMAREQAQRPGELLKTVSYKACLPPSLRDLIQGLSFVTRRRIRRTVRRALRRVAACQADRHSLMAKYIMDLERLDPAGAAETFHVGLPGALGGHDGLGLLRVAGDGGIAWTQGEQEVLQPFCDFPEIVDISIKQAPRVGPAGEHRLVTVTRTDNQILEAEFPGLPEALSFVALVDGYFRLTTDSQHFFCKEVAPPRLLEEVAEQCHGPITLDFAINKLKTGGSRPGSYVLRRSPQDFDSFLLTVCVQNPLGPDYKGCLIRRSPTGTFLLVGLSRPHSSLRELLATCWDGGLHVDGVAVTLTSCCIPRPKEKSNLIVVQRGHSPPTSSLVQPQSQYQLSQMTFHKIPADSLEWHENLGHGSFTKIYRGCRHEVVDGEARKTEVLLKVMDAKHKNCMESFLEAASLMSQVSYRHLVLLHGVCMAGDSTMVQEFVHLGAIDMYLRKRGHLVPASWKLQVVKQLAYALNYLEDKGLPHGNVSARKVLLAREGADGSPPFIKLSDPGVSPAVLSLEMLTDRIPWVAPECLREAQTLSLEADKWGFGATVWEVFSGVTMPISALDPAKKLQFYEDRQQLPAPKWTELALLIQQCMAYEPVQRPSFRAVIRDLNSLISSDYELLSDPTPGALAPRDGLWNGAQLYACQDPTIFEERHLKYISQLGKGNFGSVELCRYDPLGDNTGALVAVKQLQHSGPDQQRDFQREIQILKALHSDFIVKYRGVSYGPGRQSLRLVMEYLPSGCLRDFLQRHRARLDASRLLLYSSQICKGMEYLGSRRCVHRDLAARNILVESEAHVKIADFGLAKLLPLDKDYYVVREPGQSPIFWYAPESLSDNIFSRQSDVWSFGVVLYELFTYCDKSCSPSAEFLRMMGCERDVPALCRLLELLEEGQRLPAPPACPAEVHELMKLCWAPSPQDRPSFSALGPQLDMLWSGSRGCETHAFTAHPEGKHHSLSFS
Description: as §1, with “JAK3 enzyme” for “JAK1 enzyme”, “a JAK3” for “a JAK1”, “to 12” for “to 187.5”, “to 15” for “to 150”

[4] = target: T4, TYK2 (Homo sapiens, UniProt P29597); assay: TYK2 enzyme inhibition test (LANCE method); conditions: 1 μM test compound; read-out: TYK2 enzyme inhibitory activity (%, 1 μM)
T4 construct: purchased Invitrogen
T4 sequence (P29597 whole entry): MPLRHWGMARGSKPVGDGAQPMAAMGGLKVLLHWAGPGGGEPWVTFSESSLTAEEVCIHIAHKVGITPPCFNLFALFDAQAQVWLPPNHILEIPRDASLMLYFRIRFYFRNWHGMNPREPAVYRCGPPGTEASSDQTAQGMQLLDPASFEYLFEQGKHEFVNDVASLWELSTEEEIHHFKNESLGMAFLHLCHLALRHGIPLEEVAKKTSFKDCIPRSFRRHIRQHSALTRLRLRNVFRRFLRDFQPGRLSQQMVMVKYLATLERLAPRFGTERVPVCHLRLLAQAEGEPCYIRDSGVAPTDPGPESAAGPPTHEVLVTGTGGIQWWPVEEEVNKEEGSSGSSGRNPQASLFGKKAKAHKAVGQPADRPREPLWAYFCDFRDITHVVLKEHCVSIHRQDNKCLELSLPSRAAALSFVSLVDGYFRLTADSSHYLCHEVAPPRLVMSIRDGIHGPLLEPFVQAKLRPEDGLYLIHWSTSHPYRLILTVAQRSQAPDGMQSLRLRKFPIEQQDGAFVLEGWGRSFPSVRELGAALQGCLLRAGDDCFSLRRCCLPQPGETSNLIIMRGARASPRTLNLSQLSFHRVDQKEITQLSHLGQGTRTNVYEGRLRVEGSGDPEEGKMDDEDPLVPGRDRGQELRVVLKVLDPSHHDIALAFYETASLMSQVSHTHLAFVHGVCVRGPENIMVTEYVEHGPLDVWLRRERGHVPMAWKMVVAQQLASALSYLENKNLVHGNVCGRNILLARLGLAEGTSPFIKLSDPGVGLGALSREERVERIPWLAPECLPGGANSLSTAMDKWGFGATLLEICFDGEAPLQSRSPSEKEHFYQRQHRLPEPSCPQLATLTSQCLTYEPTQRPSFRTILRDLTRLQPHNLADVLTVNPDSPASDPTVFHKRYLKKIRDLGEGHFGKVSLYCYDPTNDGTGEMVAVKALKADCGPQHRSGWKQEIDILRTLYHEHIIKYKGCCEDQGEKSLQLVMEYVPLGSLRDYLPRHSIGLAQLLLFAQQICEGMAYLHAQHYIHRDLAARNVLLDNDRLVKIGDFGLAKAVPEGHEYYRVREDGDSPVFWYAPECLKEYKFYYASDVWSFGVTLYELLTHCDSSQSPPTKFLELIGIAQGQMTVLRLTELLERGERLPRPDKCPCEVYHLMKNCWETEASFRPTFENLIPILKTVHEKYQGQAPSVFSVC
Description: as §1, with “TYK2 enzyme” for “JAK1 enzyme”, “a TYK2” for “a JAK1”, “to 375” for “to 187.5”, “to 30” for “to 150”

T1 sequence (P23458 whole entry): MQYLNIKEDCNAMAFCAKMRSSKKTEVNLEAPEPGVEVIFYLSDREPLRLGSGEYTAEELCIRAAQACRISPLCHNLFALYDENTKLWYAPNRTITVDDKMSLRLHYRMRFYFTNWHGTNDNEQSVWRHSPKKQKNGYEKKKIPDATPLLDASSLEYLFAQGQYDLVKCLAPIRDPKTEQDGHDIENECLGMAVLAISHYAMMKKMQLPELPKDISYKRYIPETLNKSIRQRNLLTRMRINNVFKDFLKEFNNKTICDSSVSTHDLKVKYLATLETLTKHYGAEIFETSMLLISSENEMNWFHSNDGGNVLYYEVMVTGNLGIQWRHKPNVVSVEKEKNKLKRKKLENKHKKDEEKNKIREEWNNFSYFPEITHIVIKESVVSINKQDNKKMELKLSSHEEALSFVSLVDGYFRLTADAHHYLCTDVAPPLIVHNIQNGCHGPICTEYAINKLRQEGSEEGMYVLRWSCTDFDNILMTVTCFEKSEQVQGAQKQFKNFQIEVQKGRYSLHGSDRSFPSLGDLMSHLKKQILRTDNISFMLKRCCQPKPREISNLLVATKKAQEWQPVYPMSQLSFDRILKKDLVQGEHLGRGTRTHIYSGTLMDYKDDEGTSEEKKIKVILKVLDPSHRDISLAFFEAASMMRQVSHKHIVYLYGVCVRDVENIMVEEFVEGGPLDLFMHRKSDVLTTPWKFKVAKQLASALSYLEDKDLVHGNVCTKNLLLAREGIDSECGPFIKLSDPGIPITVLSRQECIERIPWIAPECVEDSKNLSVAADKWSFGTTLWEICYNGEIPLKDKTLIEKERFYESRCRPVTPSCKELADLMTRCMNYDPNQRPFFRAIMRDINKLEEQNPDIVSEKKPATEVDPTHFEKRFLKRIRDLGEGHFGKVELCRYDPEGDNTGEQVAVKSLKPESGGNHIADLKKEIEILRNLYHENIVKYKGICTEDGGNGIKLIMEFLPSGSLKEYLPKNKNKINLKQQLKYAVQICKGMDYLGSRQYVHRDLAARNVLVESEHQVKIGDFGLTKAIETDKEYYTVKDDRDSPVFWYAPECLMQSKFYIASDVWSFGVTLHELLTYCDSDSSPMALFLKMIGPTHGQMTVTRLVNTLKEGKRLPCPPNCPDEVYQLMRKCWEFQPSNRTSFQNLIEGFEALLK

SMILES | inhibition at 1 µM [1] [%] | inhibition at 1 µM [2] [%] | inhibition at 1 µM [3] [%] | inhibition at 1 µM [4] [%]
C[C@@H](C1CC1)n1cc(-c2cc(C(C)(C)O)n(C)n2)c2[nH]nc(N)c2c1=O [Example 7, 3-amino-5-((1S)-1-cyclopropylethyl)-7-(5-(2-hydroxypropan-2-yl)-1-methyl-1H-pyrazol-3-yl)-1,5-dihydro-4H-pyrazolo[4,3-c]pyridin-4-one] | 100 | 100 | 100 | 99
C[C@@H](C1CC1)n1cc(-c2cc(N3CCC(C)(O)CC3)n(C)n2)c2[nH]nc(N)c2c1=O [Example 8, 3-amino-5-((1S)-1-cyclopropylethyl)-7-(5-(4-hydroxy-4-methylpiperidin-1-yl)-1-methyl-1H-pyrazol-3-yl)-1,5-dihydro-4H-pyrazolo[4,3-c]pyridin-4-one] | 99 | 99 | 100 | 99
CC(C1CC1)n1cc(-c2cc(CN3CCS(=O)(=O)CC3)n(C)n2)c2[nH]nc(N)c2c1=O (stereo not shown) [Example 9, 3-amino-5-(1-cyclopropylethyl)-7-(5-((1,1-dioxidothiomorpholin-4-yl)methyl)-1-methyl-1H-pyrazol-3-yl)-1,5-dihydro-4H-pyrazolo[4,3-c]pyridin-4-one] | 98 | 99 | 100 | 99
CC(C)[C@H](C)n1cc(-c2cc(N3CCN(C)CC3)n(C)n2)c2[nH]nc(N)c2c1=O [Example 10, 3-amino-5-((2S)-3-methylbutan-2-yl)-7-(1-methyl-5-(4-methylpiperazin-1-yl)-1H-pyrazol-3-yl)-1,5-dihydro-4H-pyrazolo[4,3-c]pyridin-4-one] | 96 | 98 | 99 | 99
CC(=O)N1CCN(c2cc(-c3cn([C@@H](C)C(C)C)c(=O)c4c(N)n[nH]c34)nn2C)CC1 [Example 11, 7-(5-(4-acetylpiperazin-1-yl)-1-methyl-1H-pyrazol-3-yl)-3-amino-5-((2S)-3-methylbutan-2-yl)-1,5-dihydro-4H-pyrazolo[4,3-c]pyridin-4-one] | 98 | 99 | 99 | 100
CC(C)[C@H](C)n1cc(-c2cc(N3CCS(=O)(=O)CC3)n(C)n2)c2[nH]nc(N)c2c1=O [Example 12, 3-amino-7-(5-(1,1-dioxidothiomorpholin-4-yl)-1-methyl-1H-pyrazol-3-yl)-5-((2S)-3-methylbutan-2-yl)-1,5-dihydro-4H-pyrazolo[4,3-c]pyridin-4-one] | 93 | 99 | 99 | 100

The remaining lines, values ahead:

inhibition at 1 µM [1] [%] | inhibition at 1 µM [2] [%] | inhibition at 1 µM [3] [%] | inhibition at 1 µM [4] [%] | SMILES
97 | 99 | 99 | 100 | CC(C)[C@H](C)n1cc(-c2cc(N3CCCOCC3)n(C)n2)c2[nH]nc(N)c2c1=O [Example 13, 3-amino-5-((2S)-3-methylbutan-2-yl)-7-(1-methyl-5-(1,4-oxazepan-4-yl)-1H-pyrazol-3-yl)-1,5-dihydro-4H-pyrazolo[4,3-c]pyridin-4-one]
97 | 99 | 99 | 99 | COC1CCN(c2cc(-c3cn([C@@H](C)C(C)C)c(=O)c4c(N)n[nH]c34)nn2C)CC1 [Example 14, 3-amino-7-(5-(4-methoxypiperidin-1-yl)-1-methyl-1H-pyrazol-3-yl)-5-((2S)-3-methylbutan-2-yl)-1,5-dihydro-4H-pyrazolo[4,3-c]pyridin-4-one]
97 | 99 | 100 | 100 | CC(C)[C@H](C)n1cc(-c2cc(N3CCC(C(C)(C)O)CC3)n(C)n2)c2[nH]nc(N)c2c1=O [Example 15, 3-amino-7-(5-(4-(2-hydroxypropan-2-yl)piperidin-1-yl)-1-methyl-1H-pyrazol-3-yl)-5-((2S)-3-methylbutan-2-yl)-1,5-dihydro-4H-pyrazolo[4,3-c]pyridin-4-one]
97 | 99 | 100 | 100 | CC(C)[C@H](C)n1cc(-c2cc(N3CCC(F)(F)CC3)n(C)n2)c2[nH]nc(N)c2c1=O [Example 16, 3-amino-7-(5-(4,4-difluoropiperidin-1-yl)-1-methyl-1H-pyrazol-3-yl)-5-((2S)-3-methylbutan-2-yl)-1,5-dihydro-4H-pyrazolo[4,3-c]pyridin-4-one]
